Data set [1] addresses T1, PXR (Homo sapiens, UniProt O75469).
T1 sequence (O75469 1-434): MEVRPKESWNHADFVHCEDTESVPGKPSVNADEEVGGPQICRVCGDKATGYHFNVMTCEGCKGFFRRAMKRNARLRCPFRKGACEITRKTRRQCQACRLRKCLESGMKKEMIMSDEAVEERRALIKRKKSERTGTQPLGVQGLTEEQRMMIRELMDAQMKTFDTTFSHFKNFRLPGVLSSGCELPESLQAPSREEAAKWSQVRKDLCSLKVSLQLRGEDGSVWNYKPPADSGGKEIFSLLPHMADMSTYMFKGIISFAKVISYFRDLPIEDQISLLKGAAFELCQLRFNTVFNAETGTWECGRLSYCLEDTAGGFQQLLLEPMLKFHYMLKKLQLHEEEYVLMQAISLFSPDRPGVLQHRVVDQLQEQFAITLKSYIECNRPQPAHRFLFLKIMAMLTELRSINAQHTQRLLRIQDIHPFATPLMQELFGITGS
Conditions: sustained for at least 48–72 hours; ref Fuchs et al., 2012; cited from earlier work.

For the next data set, the system named is T248E/K277Q form of PXR. Conditions: ref Wang et al., 2007; cited from earlier work.
For data set [2], the system named is constitutively active pocket-filling mutants of PXR. The data set is described as follows: antagonism of constitutively active pocket-filling mutants of PXR. It counts as cell-based. The conditions noted are these: double and triple mutant forms.
Another data set concerns the target T2, Q272H PXR (Homo sapiens, UniProt O75469, Q272H).
T2 sequence (O75469 1-434 Q272H): T1 sequence (O75469 1-434) with Q272H
The data set is described as follows: yeast two-hybrid screen of PXR mutants. In kind it is cell-based. The conditions noted are these: Q272H mutation at the surface AF-2 site.

The next data set concerns PXR LBD. Conditions: ref Xue et al., 2007; cited from earlier work.
Data set [3] deals with PXR. The conditions noted are these: ref Poulton et al., 2012; cited from earlier work.

Changes are numbered by the printed parent chain. Some results are limits rather than exact numbers.

For `CC(=O)N1CCN(c2ccc(OCC3COC(Cn4ccnc4)(c4ccc(Cl)cc4Cl)O3)cc2)CC1` (stereo not drawn) [ketoconazole], the “concentration needed to antagonize PXR activation in vivo” value at PXR [1] is greater than 10 µM. Besides, the “antagonism of double-mutant T248E/K277Q PXR” value in the data set on T248E/K277Q form of PXR is recorded as “not susceptible to antagonism”. In data set [2], the “antagonism of constitutively active pocket-filling PXR mutants” value was “still susceptible to antagonism”. The “sensitivity of Q272H PXR to the antagonist” value on Q272H PXR is listed as “insensitive”.

For orientation: Kd means the concentration at which binding is half-saturated. Regarding `O=S(=O)(c1ccccc1)N(CC(F)(F)F)c1ccc(C(O)(C(F)(F)F)C(F)(F)F)cc1` [T1317, T0901317], the Kd with PXR LBD is 11 nM.

As to `C[S+]([O-])CCCCN=C=S` (stereo not drawn) [sulphoraphane, sulforaphane], in the data set with PXR [3], the “effect in a humanized PXR mouse model” value is given as “absence of effect”.

Source of the values: PMC3583015 (Drug metabolism reviews, 2013).
